Values joined by “and” are separate entries in the source; they are usually repeats but may differ in a detail not shown here. Equal entries are not always repeated.
Assays:
[1] = target: T1, Fluc (Photinus pyralis, UniProt P08659); assay: BL emission spectra of luciferase-luciferin reactions; assay type: biochemical; settings: 100 mM HEPES pH 8.0, 25 °C
Protocol: (§1) 1.5 Bioluminescence characterizations
(§2) Reactions of luciferases, including Photinus pyralis luciferase (Fluc), Phrixothrix hirtus luciferase (SLR), Pyrearinus termitilluminans […]
(§3) mM D-LH 2 analogues, 3 mM ATP, 6 mM MgCl2, and 10 µM luciferase in 0.2 ml of 100 mM HEPES-NaOH pH 8.0. The bioluminescence (BL) emission characteristics were recorded using a microplate reader in a BL mode (Thermo Scientific, Varioskan, LUX multimode). […]
(§4) sphere-based multichannel spectrometer with a charge-coupled device (CCD) detector. […]

[2] = test system: SLR; assay: as above; assay type: biochemical, Phrixothrix hirtus; settings: 100 mM HEPES pH 8.0, 25 °C
Protocol: as §1, §2, §3, §4

[3] = test system: Eluc; assay: as above; assay type: biochemical, Pyrearinus termitilluminans; settings: 100 mM HEPES pH 8.0, 25 °C
Protocol: as §1, §2, §3, §4

[4] = test system: Pmluc-WT; assay: as above; assay type: biochemical, Pyrocoelia miyako; settings: 100 mM HEPES pH 8.0, 25 °C
Protocol: as §1, §2, §3, §4

[5] = test system: Pmluc-N230S; assay: as above; assay type: biochemical, Pyrocoelia miyako; settings: 100 mM HEPES pH 8.0, 25 °C
Protocol: mM D-LH 2 analogues, 3 mM ATP, 6 mM MgCl2, and 10 µM luciferase in 0.2 ml of 100 mM HEPES-NaOH pH 8.0. The bioluminescence (BL) emission characteristics were recorded using a microplate reader in a BL mode (Thermo Scientific, Varioskan, LUX multimode). A digital single-lens reflex (DSLR) camera (Nikon D80, CCD sensor) with a 30-second exposure period was used to capture the BL images.
were selected to investigate their BL emission spectra with luciferases including Fluc, SLR, Pmluc-WT, Pmluc-N230S using an integrating sphere-based multichannel spectrometer with a charge-coupled device (CCD) detector.

[6] = target: T1, Fluc; assay: Steady-state kinetics of luciferase reactions (luminometer); assay type: biochemical; settings: for appKm: pH 8.0, 25 °C; for Relative kcat: relative to 2a compound
Protocol: as §1, §2, §3
BL of the
(§5) The reactions were initiated by mixing 25 µl of premixed solution of luciferases/D-LH 2 analogues with 125 µl of 3 mM ATP and 6 mM MgCl2 in 100 mM HEPES-NaOH (pH 8.0). The light intensity (relative light unit, RLU) during 0-300 sec was then collected to represent the overall luciferase activity which was further used for calculating kinetic parameters from the Michaelis-Menten equation. […]

[7] = test system: SLR; assay: as above; assay type: biochemical, Phrixothrix hirtus; settings: for appKm: pH 8.0, 25 °C; for Relative kcat: relative to 2a compound
Protocol: as §1, §2, §3
BL of the
as §5

[8] = test system: Eluc; assay: as above; assay type: biochemical, Pyrearinus termitilluminans; settings: for appKm: pH 8.0, 25 °C; for Relative kcat: relative to 2a compound
Protocol: as §1, §2, §3
BL of the
as §5

[9] = test system: Pmluc-WT; assay: as above; assay type: biochemical, Pyrocoelia miyako; settings: for appKm: pH 8.0, 25 °C; for Relative kcat: relative to 2a compound
Protocol: as §1, §2, §3
BL of the
as §5

[10] = test system: Pmluc-N230S; assay: as above; assay type: biochemical, Pyrocoelia miyako; settings: Pmluc-N230S; for appKm: pH 8.0, 25 °C; for Relative kcat: relative to 2a compound
Protocol: as §1, §2, §3
BL of the
as §5

[11] = target: T1, Fluc; assay: biochemical; assay type: binding; settings: ITC
[12] = target: T1, Fluc; assay: Stopped-flow luminometry, single turnover light formation and decay; assay type: biochemical; settings: Fluc single turnover, 25 °C
Protocol: 1.5 Bioluminescence characterizations […]
One syringe was filled with a solution of 50 µM Fluc, 3 mM ATP, and 6 mM
in both syringes were mixed by a stopped-flow device and measured the light emission at 25 °C in triplicate. […]
2.8 Investigation of bioluminescence kinetics using stopped-flow luminometry
reactions were investigated using a stopped-flow spectrophotometer (employing a light-off mode for detecting the luminescence). One

[13] = Absorption and fluorescence spectra of luciferins; assay type: physicochemical; settings: 100 mM HEPES pH 8.0, 25 °C
Protocol: 2.6 Spectra of firefly luciferins
spectrophotometer (Agilent technologies, Cary 100 UV Vis, Cary Series UV-Vis Spectrophotometer).
were recorded by a microplate reader (Thermo Scientific, Varioskan, LUX multimode) in fluorescence mode. The reactions of D-LH 2 […]
Supplementary Table S5. […]
[e] ND denotes “not detectable”. […]

[14] = target: T1, Fluc; settings: with Fluc; cited from earlier work
[15] = test system: luciferases; settings: cited from earlier work
[16] = target: Fluc-ApCPP complex (Photinus pyralis, UniProt P08659); assay: biochemical; assay type: binding; settings: ITC
Fluc-ApCPP complex, sequence (P08659 whole entry, one chain of several): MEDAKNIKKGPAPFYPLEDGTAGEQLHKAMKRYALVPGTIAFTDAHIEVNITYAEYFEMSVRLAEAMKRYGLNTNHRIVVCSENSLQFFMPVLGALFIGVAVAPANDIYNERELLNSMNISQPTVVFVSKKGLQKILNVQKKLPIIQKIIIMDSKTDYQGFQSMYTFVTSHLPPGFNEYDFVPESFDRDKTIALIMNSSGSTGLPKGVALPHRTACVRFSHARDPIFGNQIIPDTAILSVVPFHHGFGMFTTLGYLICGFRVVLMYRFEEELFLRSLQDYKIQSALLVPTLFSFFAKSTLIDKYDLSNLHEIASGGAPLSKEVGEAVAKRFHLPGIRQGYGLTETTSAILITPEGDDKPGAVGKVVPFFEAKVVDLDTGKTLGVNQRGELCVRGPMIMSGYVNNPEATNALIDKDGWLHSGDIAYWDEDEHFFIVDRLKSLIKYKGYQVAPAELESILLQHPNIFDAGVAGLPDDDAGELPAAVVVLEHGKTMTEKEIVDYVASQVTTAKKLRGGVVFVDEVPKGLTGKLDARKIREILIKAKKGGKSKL

[17] = concentration range tested 0-300

T1 sequence (P08659 whole entry): as the sequence (P08659 whole entry, one chain of several) above

| Compound | Bioluminescence wavelength (BLλ) [1] | Bioluminescence wavelength (BLλ) [2] | Bioluminescence wavelength (BLλ) [3] | Bioluminescence wavelength (BLλ) [4] | Bioluminescence wavelength (BLλ) [5] | appKm [6] | Relative kcat [6] | appKm [7] | Relative kcat [7] | appKm [8] | Relative kcat [8] | appKm [9] | Relative kcat [9] | appKm [10] | Relative kcat [10] | Absorption (λmax) [13] | Fluorescence (λem) [13] | further results |
| --- | --- | --- | --- | --- | --- | --- | --- | --- | --- | --- | --- | --- | --- | --- | --- | --- | --- | --- |
| COc1cc2nc(C3=N[C@@H](C(=O)O)CS3)sc2c(OC)c1O [Compound 2d, 5′,7′-dimethoxy-D-luciferin] | 625 nm | > 630 nm | 596 nm | 582 nm | 646 nm | 0.2 µM | 1.3 | 5.0 µM | 0.8 | 34.7 µM | 0.1 | 0.2 µM | ~ 0.02 | 13.3 µM | 0.2 | 412 nm |  | Bioluminescence wavelength (BLλ) ([2]; listed as 5′,7′-dimethoxy-D-LH2): 663 nm; Substrate inhibition [6, 17]: > 0.8 µM; Substrate inhibition [7, 17]: > 16.6 µM; Substrate inhibition [9, 17]: > 0.8 µM; N site [11]: 0.42; G (free energy of binding) ([11]; 25 °C): -6.18 kcal/mol; H (enthalpy of binding) ([11]; 25 °C): -5.24 kcal/mol; Kd ([11]; Table S9): 30.4 µM; Observed rate constant (kobs) Light decay Faster phase [12]: 0.50 ± 0.00 s⁻¹; Observed rate constant (kobs) Light formation [12]: 8.13 ± 0.08 s⁻¹ |
| CN(C)c1ccc(/C=C/C=C/C2=N[C@@H](C(=O)O)CS2)cc1.Cl [AkaLumine–HCl] |  |  |  |  |  |  |  |  |  |  |  |  |  |  |  |  |  | Quantum yield [14]: 4.0 ± 0.5% |
| infraluciferin |  |  |  |  |  |  |  |  |  |  |  |  |  |  |  |  |  | Longest BL wavelength [15]: > 700 nm |
| Cc1cc(O)c(C)c2sc(C3=N[C@@H](C(=O)O)CS3)nc12 [Compound 2e, 4′,7′-dimethyl-D-LH2] | 636 nm | 644 nm | 583 nm | 637 nm | 631 nm | 7.1 µM | 1.0 | 9.0 µM | 5.5 | 19.1 µM | 0.2 | 10.2 µM | 1.2 | 6.6 µM | 6.3 | 330 nm | 560 nm and 523–560 nm | Kd ([16]; 25 °C, preformed Fluc-ApCPP complex, read-out: Dissociation constant (Kd) Fluc-ApCPP: Luciferin): 864 ± 7 µM; N site ([16]; Fluc-ApCCP): 0.90; G (free energy of binding) ([16]; Fluc-ApCCP, 25 °C): -4.41 kcal/mol; H (enthalpy of binding) ([16]; Fluc-ApCCP, 25 °C): -80.0 kcal/mol |
| Cc1c(O)c2ccccc2c2nc(C3=N[C@@H](C(=O)O)CS3)sc12 [Compound 2f, 7′-methylnaphthol-D-luciferin] | 648 nm and > 630 nm | 634 nm | 557 nm |  |  | 2.7 µM | 0.1 | 11.6 µM | 1.1 | 24.7 µM | 0.0 |  |  |  | ~ 0.01 | 437 nm | 580 nm |  |

From PMC12668289 (RSC Chemical Biology, 2025)
